According to article PMC11724075, “Small-molecule-induced ERBB4 activation to treat heart failure” (Nature Communications, 2025):
Several values for one entry are separate records, joined by “and”; a condition that tells them apart may be missing. Equal values may be shown once.

What was measured:
[1] = tested on: ERK1/2 phosphorylation (pERK1/2/ERK1/2); assay: Western blot pERK1/2/ERK1/2 in iAMs; assay type: cell-based, rat; conditions: for pErk/Erk, relative to vehicle of the same time point: iAMs, single replicates; for phosphorylation of ERK1/2 in iAMs (in words): NRG1 10 nM or EF-1 32 µM
Description: Hearts of the aforementioned transgenic mice were removed immediately after the animals had been killed. Cells and heart tissue were collected in RIPA lysis buffer (Thermo Fisher Scientific, 89900) supplemented with protease inhibitors (Merck, 11836153001) and phosphatase inhibitors (Merck, 4906845001) and the lysates were centrifuged at 14,000 × g for 10 min. The supernatants were collected, supplemented with sample buffer, and incubated at 95 °C for 5 min. Protein quantification was done with Pierce^TM BCA Protein Assay Kits (Thermo Fisher, 23227) according to the manufacturer’s instructions. Equal protein amounts of clarified lysates (20 µg) were subsequently separated by sodium dodecyl sulfate (SDS) polyacrylamide gel electrophoresis (165 V, 400 mA, 60 min) and transferred onto polyvinylidene fluoride membranes by electroblotting (100 V, 400 mA, 90 min). Next, the membranes were incubated for 1 h with Li-Cor blocking buffer (Li-Cor, 927-60001) at RT in Tris-buffered saline (TBS), supplemented with 0.1% Tween (BIO-RAD, 1706531). Next, primary antibodies were added (see below and Table 1a) in Li-Cor blocking buffer supplemented with 0.1% Tween, and the membranes were incubated overnight at 4 °C on a shaker. Following washing with TBS-0.1% Tween, the membranes were incubated for 1 h at RT with corresponding IRDye-conjugated secondary antibodies (See below and Table 1b) in Li-Cor blocking buffer supplemented with […] and 0.1% Tween. The membrane was visualized with the Odessey imaging system.

[2] = tested on: HCFs; assay: In vitro collagen expression: COL3A1 mRNA in HCFs stimulated with TGF-β1; assay type: cell-based, human; conditions: for COL3A1 mRNA expression (FC): TGF-β1 10 ng/mL, 24 h, single replicates
Description: HCFs were seeded at a density of 1.5 ×10^5 cells/well in doxycycline-free medium in 12-well plates (Greiner Bio-One, 665180) and incubated overnight. […] Compounds were pre-incubated for 10 min before addition of TGF-β1.
RNA was extracted using Nucleospin RNA XS (Macherey-Nagel, 740902.50) according to the manufacturer’s instructions. For cDNA synthesis, total RNA was added to a mixture containing buffer with random hexamers and reverse transcriptase enzyme (TaqMan reverse transcription reagents, Applied biosystems, N8080234) after which samples were incubated for 10 min at 25 °C, 30 min at 48 °C, and 5 min at 95 °C. RT-qPCR was performed on QuantStudio 3 Real-time PCR system (Applied Biosystems) using Taqman Universal PCR Master Mix (Applied Biosystems, 4304437) and Taqman primers according to the manufacturer’s instructions. Settings were as follows: […] followed by 10 min at 95 °C, 40 cycles (45 cycles for ERBB4) of denaturation at 95 °C for 15 s, and 1 min at 60 °C. All reactions were run in duplicate, and all data were normalized against housekeeping genes glyceraldehyde-3-phosphate dehydrogenase (GAPDH), beta-actin (ACTB), or phosphoglycerate kinase 1 (PGK1). Expression levels were calculated using the comparative cycle method and expressed as fold change (FC) to appropriate controls. The following TaqMan primers were used (Thermo Fisher Scientific): GAPDH (Hs02758991_g1, Mm99999915_g1 and Rn01775763_g1), PGK1 (Hs99999906_m1), ID2 (Hs04187239_m1), BMPR1B (Hs01010965_m1), CACNA2D4 (Hs00297782_m1), DUSP2 (Hs00358879_m1), NR4A1 (Hs00374226_m1), SGK1 (Hs00178612_m1), COL1A1 (Mm00801666_g1), COL3A1 (Hs00943809_m1 and Mm00802305_g1), ERBB4 (Hs00955525_m1 and Rn00572447_m1), ACTB (Mm02619580_g1) and ANP (Mm01255747_g1).

O=C(NC1CC1)C(Sc1nc2ccccc2c(=O)n1C1CCCC1)c1ccccc1 (stereo not drawn) [EF-1]
time of peak levels of ERK1/2 phosphorylation ([1]; EF-1): 15 min
pErk/Erk, relative to vehicle of the same time point ([1]; EF-1 32 µM, 0 minutes): 1.078 and 1.057 and 1.137 and 0.8985
pErk/Erk, relative to vehicle of the same time point ([1]; EF-1 32 µM, 15 minutes): 1.66 and 1.416 and 1.274 and 1.578
pErk/Erk, relative to vehicle of the same time point ([1]; EF-1 32 µM, 60 minutes): 1.162 and 1.018 and 1.18 and 0.9894
pErk/Erk, relative to vehicle of the same time point ([1]; EF-1 32 µM, 120 minutes): 0.9869 and 1.003 and 0.9414 and 0.8187
pErk/Erk, relative to vehicle of the same time point ([1]; EF-1 32 µM, 240 minutes): 0.9968 and 1.428 and 1.0991 and 0.9249
phosphorylation of ERK1/2 in iAMs (in words) [1]: transient phosphorylation of ERK1/2
COL3A1 mRNA expression (FC) ([2]; EF-1 + SiERBB4, 1e-6 M): 1
COL3A1 mRNA expression (FC) ([2]; EF-1 + SiERBB4, 4e-6 M): 0.5373 and 0.7163 and 0.5917 and 0.6311 and 0.7899 and 0.8499
COL3A1 mRNA expression (FC) ([2]; EF-1 + SiERBB4, 8e-6 M): 0.8243 and 0.8469 and 0.7111 and 0.7439 and 0.7398 and 0.6183
COL3A1 mRNA expression (FC) ([2]; EF-1 + SiERBB4, 1.6e-5 M): 0.5202 and 0.6505 and 0.7517 and 0.6477 and 0.5129
COL3A1 mRNA expression (FC) ([2]; EF-1 + SiERBB4, 3.2e-5 M): 0.7721 and 0.6715 and 0.5121 and 0.7108 and 0.5403 and 0.6885
COL3A1 mRNA expression (FC) ([2]; EF-1 + SiScr, 1e-6 M): 0.9505 and 1.0731 and 0.9765
COL3A1 mRNA expression (FC) ([2]; EF-1 + SiScr, 4e-6 M): 0.3565 and 0.5152 and 0.404
COL3A1 mRNA expression (FC) ([2]; EF-1 + SiScr, 8e-6 M): 0.4855 and 0.3848 and 0.5526
COL3A1 mRNA expression (FC) ([2]; EF-1 + SiScr, 1.6e-5 M): 0.2758 and 0.3929 and 0.4764
COL3A1 mRNA expression (FC) ([2]; EF-1 + SiScr, 3.2e-5 M): 0.4172 and 0.4035 and 0.5599
decrease of TGF-β1-induced COL3A1 mRNA levels ([2]; HCFs, dose-dependent, 4–32 µM): up to 50%

Cc1sc2nc(SC(C)C(=O)NCc3ccc4c(c3)OCO4)n(-c3ccccc3)c(=O)c2c1C (stereo not drawn) [NA-1]
effect on TGF-β1-induced COL3A1 expression in HCFs (in words) ([2]; 4–32 µM): did not affect COL3A1 expression
COL3A1 mRNA expression (FC) ([2]; NA-1, 1e-6 M): 1
COL3A1 mRNA expression (FC) ([2]; NA-1, 4e-6 M): 0.6694 and 0.8324 and 0.8909
COL3A1 mRNA expression (FC) ([2]; NA-1, 8e-6 M): 0.9443 and 0.7317 and 0.6882
COL3A1 mRNA expression (FC) ([2]; NA-1, 1.6e-5 M): 0.7688 and 0.6597 and 0.5112
COL3A1 mRNA expression (FC) ([2]; NA-1, 3.2e-5 M): 0.7866 and 0.7983 and 0.6723

neuregulin-1 [NRG1]
phosphorylation of ERK1/2 in iAMs (in words) [1]: time-dependent phosphorylation of ERK1/2
pErk/Erk, relative to vehicle of the same time point ([1]; NRG1 10 nM, 0 minutes): 0.7394 and 1.087 and 0.6444
pErk/Erk, relative to vehicle of the same time point ([1]; NRG1 10 nM, 15 minutes): 2.343 and 1.9112 and 1.767
pErk/Erk, relative to vehicle of the same time point ([1]; NRG1 10 nM, 60 minutes): 3.329 and 2.139 and 1.769
pErk/Erk, relative to vehicle of the same time point ([1]; NRG1 10 nM, 120 minutes): 1.461 and 2.784 and 4.448
pErk/Erk, relative to vehicle of the same time point ([1]; NRG1 10 nM, 240 minutes): 3.3773 and 3.181
